From patent publication EP1510220B1 (priority 1993, dated 1994)

What was measured:
Rat aortic SMCs = test: Wound migration assay on confluent SMC; type: cell-based
Experimental: Cell culture. Rat aortic SMCs from 12-20 week old Wistar male rats were prepared by enzyme dispersion, as described in Example 7. The cultured cells were confirmed as >99% SMC by staining for SM-MHC, and proliferated with a cell cycle time of 36 h. Cells were passaged as described in Example 7, and were used either in primary culture or between passages 6-12.
Migration. Migration was assayed using SMC grown to confluence on glass coverslips. A defined injury is performed on the confluent layer of cells, which are allowed to recover in D-MEM + 10% FCS for 24 h. Bromodeoxyuridine (10 µM) is added between 18-24 h, to label proliferating cells. Cells migrating past the boundary of the wound edge at 24 h are detected by propidium iodide (PI) staining of the cell nuclei (500 µM PI in PBS + 0.5% NP-40 for 30 min at room temperature). Cells that synthesized DNA were detected by antibody staining for bromodeoxyuridine using fluorescein-conjugated anti-bromodeoxyuridine antibodies. Migrating and proliferating cells in each field of view were simultaneously counted by image analysis of the rhodamine emission from PI and fluorescein emission from bromodeoxyuridine.

[1] = system: Vascular smooth muscle cells (BO54); test: Scratch-migration assay with morphological toxicity grading; type: cell-based, baboon; set-up: key to Migration Grade in the Cleared Area of the Well / Migration Grade in an Undisturbed Region of the Well: - = no migration; +1 = minimal; +2 = mild; +3 = moderate; +4 = marked (maximum density; limit of cell contact inhibition) migration
Experimental: Scratch assays to determine the extent of smooth muscle cell migration inhibition by cytochalasin B were performed in accordance with the following protocol:
Vascular smooth muscle cells (BO54) were derived from explants of baboon aortic smooth muscle, as described in Example 1. The cells were grown in flat bottom, six well tissue culture plates, which hold about 5 ml of medium. The vascular smooth muscle cells were plated at 200,000 cells/well and placed at 37°C in a humidified 5% CO2 incubator for 18 hours. The wells were then scratched with a sterile portion of a single edge razor blade that was held by clamp or pliers and was brought aseptically into contact with the bottom of the well at a 90° angle. The cells from a small area along the scratch were removed by a sterile cotton tipped applicator while the blade was in contact with the bottom of the well. After incubation, the presence of cells in the "scratched" area is indicative of cell migration across the scratch line.
Briefly, a stock solution of cytochalasin B (Sigma Chemical Co.) in dimethyl sulfoxide (DMSO) at 1 mg/ml was prepared. Test dilutions of cytochalasin B or control medium were added. Each experiment included two sets of plates: • A set: Test agent exposure for 1, 3, 6, 8 and 10 days only; and • B set: Test agent exposure for 1, 3, 6, 8 and 10 days, followed by a seven day recovery time with control medium. Both sets of plates were fixed (10% formalin in PBS) and stained (0.02% crystal violet) at the end of the timed exposures. Test concentrations for cytochalasin B were 1, 0.1 and 0.01 µg/ml, and a negative medium control was included. Fresh medium and drug were supplied 3 times per week.
In this Table, "M" indicates Migration Grade, wherein - = no migration; +1 = minimal; +2 = mild; +3 = moderate; and +4 = marked (maximum density; limit of cell contact inhibition) migration of vascular smooth muscle cells into the cleared area adjacent to the scratch. In this Table, "T" denotes a morphological Toxicity Grade, wherein - = no toxicity; +1 = minimal; +2 = mild; +3 = moderate; and +4 = marked toxicity. The migration results are expressed as "Grade in the Cleared Area of the Well / Grade in an Undisturbed Region of the Well." The toxicity values represent a grade for all cells in each well.

[2] = 7-day Recovery Post Exposure, 0.01 µg/mL, Day 1
[3] = 7-day Recovery Post Exposure, 0.01 µg/mL, Day 3
[4] = 7-day Recovery Post Exposure, 0.01 µg/mL, Day 6
[5] = 7-day Recovery Post Exposure, 0.01 µg/mL, Day 8
[6] = 7-day Recovery Post Exposure, 0.01 µg/mL, Day 10
[7] = 7-day Recovery Post Exposure, 0.1 µg/mL, Day 1
[8] = 7-day Recovery Post Exposure, 0.1 µg/mL, Day 3
[9] = 7-day Recovery Post Exposure, 0.1 µg/mL, Day 6
[10] = 7-day Recovery Post Exposure, 0.1 µg/mL, Day 8
[11] = 7-day Recovery Post Exposure, 0.1 µg/mL, Day 10
[12] = 7-day Recovery Post Exposure, 1.0 µg/mL, Day 1
[13] = 7-day Recovery Post Exposure, 1.0 µg/mL, Day 3
[14] = 7-day Recovery Post Exposure, 1.0 µg/mL, Day 6
[15] = 7-day Recovery Post Exposure, 1.0 µg/mL, Day 8
[16] = 7-day Recovery Post Exposure, 1.0 µg/mL, Day 10
[17] = Continuous Exposure, 0.01 µg/mL, Day 1
[18] = Continuous Exposure, 0.01 µg/mL, Day 3
[19] = Continuous Exposure, 0.01 µg/mL, Day 6
[20] = Continuous Exposure, 0.01 µg/mL, Day 8
[21] = Continuous Exposure, 0.01 µg/mL, Day 10
[22] = Continuous Exposure, 0.1 µg/mL, Day 1
[23] = Continuous Exposure, 0.1 µg/mL, Day 3
[24] = Continuous Exposure, 0.1 µg/mL, Day 6
[25] = Continuous Exposure, 0.1 µg/mL, Day 8
[26] = Continuous Exposure, 0.1 µg/mL, Day 10
[27] = Continuous Exposure, 1.0 µg/mL, Day 1
[28] = Continuous Exposure, 1.0 µg/mL, Day 3
[29] = Continuous Exposure, 1.0 µg/mL, Day 6
[30] = Continuous Exposure, 1.0 µg/mL, Day 8
[31] = Continuous Exposure, 1.0 µg/mL, Day 10

CC/C(=C(\c1ccccc1)c1ccc(OCCN(C)C)cc1)c1ccccc1 [tamoxifen, trans-2-[4-(1,2-diphenyl-1-butenyl)phenoxy]-N,N-dimethylethylamine]
inhibition at 10 µM (Rat aortic SMCs; Rattus norvegicus, added at the time of wounding, TGF-beta-1 10 ng/ml, tamoxifen 10 µM, 24 h, read-out: less cells crossed the boundary of the wound): ~90%
entry into DNA synthesis stimulated upon wounding (Rat aortic SMCs; bromodeoxyuridine labeling): did not significantly inhibit

cytochalasin B
ability to migrate following removal of the therapeutic agent (grade) ([1]; 0.1 µg/ml, even after 10 days of continuous exposure): +3 to +4
migration of vascular smooth muscle cells into the cleared area adjacent to the scratch (grade) ([1]; 0.1 µg/ml, summary of Table 1): +1 to +2
Migration Grade in an Undisturbed Region of the Well [1, 2]: +4
Migration Grade in the Cleared Area of the Well [1, 2]: +3
Migration Grade in an Undisturbed Region of the Well [1, 3]: +4
Migration Grade in the Cleared Area of the Well [1, 3]: +3
Migration Grade in an Undisturbed Region of the Well [1, 4]: +4/+4
Migration Grade in the Cleared Area of the Well [1, 4]: +4/+4
Migration Grade in an Undisturbed Region of the Well [1, 5]: +4/+4
Migration Grade in the Cleared Area of the Well [1, 5]: +4/+4
Migration Grade in an Undisturbed Region of the Well [1, 6]: +4/+4
Migration Grade in the Cleared Area of the Well [1, 6]: +4/+4
Migration Grade in an Undisturbed Region of the Well [1, 7]: +4
Migration Grade in the Cleared Area of the Well [1, 7]: +3
Migration Grade in an Undisturbed Region of the Well [1, 8]: +4
Migration Grade in the Cleared Area of the Well [1, 8]: +3
Migration Grade in an Undisturbed Region of the Well [1, 9]: +4
Migration Grade in the Cleared Area of the Well [1, 9]: +3
Migration Grade in an Undisturbed Region of the Well [1, 10]: +4
Migration Grade in the Cleared Area of the Well [1, 10]: +3
Migration Grade in an Undisturbed Region of the Well [1, 11]: +4/+4
Migration Grade in the Cleared Area of the Well [1, 11]: +4/+4
Migration Grade in an Undisturbed Region of the Well [1, 12]: +3
Migration Grade in the Cleared Area of the Well [1, 12]: +2
Migration Grade in an Undisturbed Region of the Well [1, 13]: +3
Migration Grade in the Cleared Area of the Well [1, 13]: +2
Migration Grade in an Undisturbed Region of the Well [1, 14]: +3
Migration Grade in the Cleared Area of the Well [1, 14]: +2
Migration Grade in an Undisturbed Region of the Well [1, 15]: +3
Migration Grade in the Cleared Area of the Well [1, 15]: +2
Migration Grade in an Undisturbed Region of the Well [1, 16]: +3
Migration Grade in the Cleared Area of the Well [1, 16]: +2
Migration Grade in an Undisturbed Region of the Well [1, 17]: +3
Migration Grade in the Cleared Area of the Well [1, 17]: +1
Migration Grade in an Undisturbed Region of the Well [1, 18]: +4
Migration Grade in the Cleared Area of the Well [1, 18]: +3
Migration Grade in an Undisturbed Region of the Well [1, 19]: +4
Migration Grade in the Cleared Area of the Well [1, 19]: +3
Migration Grade in an Undisturbed Region of the Well [1, 20]: +4
Migration Grade in the Cleared Area of the Well [1, 20]: +3
Migration Grade in an Undisturbed Region of the Well [1, 21]: +4
Migration Grade in the Cleared Area of the Well [1, 21]: +3
Migration Grade in an Undisturbed Region of the Well [1, 22]: +3
Migration Grade in the Cleared Area of the Well [1, 22]: +1
Migration Grade in an Undisturbed Region of the Well [1, 23]: +4
Migration Grade in the Cleared Area of the Well [1, 23]: +1
Migration Grade in an Undisturbed Region of the Well [1, 24]: +4
Migration Grade in the Cleared Area of the Well [1, 24]: +2
Migration Grade in an Undisturbed Region of the Well [1, 25]: +4
Migration Grade in the Cleared Area of the Well [1, 25]: +2
Migration Grade in an Undisturbed Region of the Well [1, 26]: +4
Migration Grade in the Cleared Area of the Well [1, 26]: +2
Migration Grade in an Undisturbed Region of the Well [1, 27]: +2
Migration Grade in the Cleared Area of the Well [1, 27]: -
Migration Grade in an Undisturbed Region of the Well [1, 28]: +2
Migration Grade in the Cleared Area of the Well [1, 28]: -
Migration Grade in an Undisturbed Region of the Well [1, 29]: +2
Migration Grade in the Cleared Area of the Well [1, 29]: -
Migration Grade in an Undisturbed Region of the Well [1, 30]: +2
Migration Grade in the Cleared Area of the Well [1, 30]: -
Migration Grade in an Undisturbed Region of the Well [1, 31]: +2
Migration Grade in the Cleared Area of the Well [1, 31]: -
